Tested on: 422866-222-R5-J1-PDC complex spheroid viability
Assay: Anticancer human tumor 422866-222-R5-J1-PDC patient-derived pancreatic adenocarcinoma cell line growth inhibition [POLQ]
Conditions: for IC50: curve of first compound; for viability, T/C: stronger effect = lower value
How it was run: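 Patient-derived tumour cells were co-cultured with HUVEC and mesenchymal stem cells as multicellular spheroids at 37 °C. They were treated with POLQ inhibitors (novobiocin, ART-558, RP6685) alone or combined with other agents. Top concentrations were at or near clinical Cmax (otherwise 10 microM; SN-38 at 1 microM), decreasing in half-log steps.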
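Further: spheroids exposed to compounds for one week before readout.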
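Wherever viability, T/C is given: percent of DMSO vehicle wells luminescence so 100% = untreated viability.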

CCc1cc2c(N3CCc4c(cc(Cn5ccnc5)cc4-c4cn(C)nc4C(F)(F)F)C3=O)cc(C)nc2c(OC)n1 + Cc1cccc(N(C)C(=O)C2C(O)CCN2c2nc(C)cc(C(F)(F)F)c2C#N)c1
IC50 (second compound 0.0316 µM): > 10 µM | IC50 (second compound 0.1 µM): > 10 µM | IC50 (second compound 0.316 µM): > 10 µM | IC50 (second compound 1 µM): > 10 µM | IC50 (second compound 3.16 µM): > 10 µM | IC50 (second compound 10 µM): > 10 µM | viability, T/C (second compound 0.0316 µM, first compound 0.0316 µM): 78.4% | viability, T/C (second compound 0.0316 µM, first compound 0.1 µM): 73.7% | viability, T/C (second compound 0.0316 µM, first compound 0.316 µM): 93.1% | viability, T/C (second compound 0.0316 µM, first compound 1 µM): 99.6% | viability, T/C (second compound 0.0316 µM, first compound 3.16 µM): 104% | viability, T/C (second compound 0.0316 µM, first compound 10 µM): 98% | viability, T/C (second compound 0.1 µM, first compound 0.0316 µM): 84.6% | viability, T/C (second compound 0.1 µM, first compound 0.1 µM): 83.5% | viability, T/C (second compound 0.1 µM, first compound 0.316 µM): 92.2% | viability, T/C (second compound 0.1 µM, first compound 1 µM): 88.7% | viability, T/C (second compound 0.1 µM, first compound 3.16 µM): 101% | viability, T/C (second compound 0.1 µM, first compound 10 µM): 119% | viability, T/C (second compound 0.316 µM, first compound 0.0316 µM): 91.8% | viability, T/C (second compound 0.316 µM, first compound 0.1 µM): 88.7% | viability, T/C (second compound 0.316 µM, first compound 0.316 µM): 81.2% | viability, T/C (second compound 0.316 µM, first compound 1 µM): 94.9% | viability, T/C (second compound 0.316 µM, first compound 3.16 µM): 104% | viability, T/C (second compound 0.316 µM, first compound 10 µM): 94.4% | viability, T/C (second compound 1 µM, first compound 0.0316 µM): 84.5% | viability, T/C (second compound 1 µM, first compound 0.1 µM): 82.7% | viability, T/C (second compound 1 µM, first compound 0.316 µM): 86.6% | viability, T/C (second compound 1 µM, first compound 1 µM): 82.8% | viability, T/C (second compound 1 µM, first compound 3.16 µM): 93.8% | viability, T/C (second compound 1 µM, first compound 10 µM): 93.5% | viability, T/C (second compound 3.16 µM, first compound 0.0316 µM): 86.3% | viability, T/C (second compound 3.16 µM, first compound 0.1 µM): 85.8% | viability, T/C (second compound 3.16 µM, first compound 0.316 µM): 92.4% | viability, T/C (second compound 3.16 µM, first compound 1 µM): 91.6% | viability, T/C (second compound 3.16 µM, first compound 3.16 µM): 99.8% | viability, T/C (second compound 3.16 µM, first compound 10 µM): 90.6% | viability, T/C (second compound 10 µM, first compound 0.0316 µM): 88.9% | viability, T/C (second compound 10 µM, first compound 0.1 µM): 88.5% | viability, T/C (second compound 10 µM, first compound 0.316 µM): 93.9% | viability, T/C (second compound 10 µM, first compound 1 µM): 78.2% | viability, T/C (second compound 10 µM, first compound 3.16 µM): 95.8% | viability, T/C (second compound 10 µM, first compound 10 µM): 94.8%

— PubChem BioAssay AID1963844 (Molecular Pharmacology Branch, DTP, NCI, 2024)
